Consider two compounds from patent US6716829B2, “Aldosterone antagonist and cyclooxygenase-2 inhibitor combination therapy to prevent or treat inflammation-related cardiovascular disorders” (Pharmacia Corporation, priority 2000, dated 2004).

One assay concerns myocardial injury. The assay can be described thus: Assay C: histopathologic analysis, semi-quantitative myocardial injury score 0 to 4. Type of assay: in vivo, Male Sprague-Dawley rats. The settings on record: for Myocardial injury / vascular inflammatory damage (histopathology): aldosterone + salt, 7, 14, 30 days, eplerenone 100 mg/kg/day; for Myocardia 1 Necrosis (0-4): eplerenone dose 100 mg/kg/day. The procedure: The procedure of Assay B was expanded upon in a further study. […] Myocardial tissue from animals in each treatment group was examined after 7, 14, or 30 days of treatment. […] Lesions were preceded by the expression and progressive upregulation of proinflammatory molecules. […] Prior to surgery the animals were individually weighed and placed in one of the following groups: […] Potassium chloride supplementation was added to the saline solution in order to prevent the potential hypokalemia associated with aldosterone excess. […] Louis, Mo.) was inserted subcutaneously at the nape of the neck. Aldosterone was administered at a dose of 0.75 µg/hour. […] Animals were sacrificed from each group (n=8-13) after 7, 14, or 30 days of treatment. Following exsanguination, hearts and kidneys were isolated, removed, rinsed in cold phosphate-buffered saline, and blotted dry. […] The equatorial regions of the heart were routinely processed into paraffin with an automated tissue processor (Hypercenter XP, Shandon/Lipshaw Inc., Pittsburgh, Pa.) and embedded into fresh paraffin apical side down (Shandon Embedding Center, Shandon/Lipshaw Inc.). Five and 10 µm sections were cut from each block of tissue using a Leica RM2035 rotary microtome (Leica Inc., Houston, Tex.) and mounted on Superfrost/Plus microscope slides (Fisher Scientific, Pittsburgh, Pa.). Ten […]m sections were stained with the collagen specific stain, Picrosirius Red F3BA (Saturated Picric Acid (Sigma Chemical, St. […] Waterbury, Conn.) (6). Mounted tissues were hydrated with water. […] Slides were coverslipped with #1 cover glass using Permount Histological Mounting Media (Fisher Scientific). Two slides mounted with 5 µm sections were cut for each animal. One slide was processed for H&E staining and one for Periodic Acid Schiff (PAS) staining. The H&E and PAS were used for pathological scoring of the hearts. Semi-quantification of myocardial injury was performed as described previously with minor modifications (7). Briefly, a scale from 0 to 4 was used to score the level of myocardial injury. A score of 0 represented no damage. […] Myocardial necrosis was defined as the presence of necrotic changes in cardiomyocytes such as nuclear pyknosis or karyolysis, non-contracting marginal wavy fibers and hypereosinophilia of the cytoplasm, or clear evidence of destruction of the cardiomyocyte membrane.

A further assay relates to Collagen III. The assay can be described thus: Assay C: Collagen III mRNA by TaqMan RT-PCR. It counts as in vivo, Male Sprague-Dawley rats. Particulars: for Collagen-III (AU): collagen type III mRNA relative to cyclophilin, eplerenone dose 100 mg/kg/day. The protocol: The procedure of Assay B was expanded upon in a further study. […] Myocardial tissue from animals in each treatment group was examined after 7, 14, or 30 days of treatment.
Potassium chloride supplementation was added to the saline solution in order to prevent the potential hypokalemia associated with aldosterone excess.
At the time of the surgery, an Alzet 2002 osmotic minipump (Alza Corp., Palo Alto, Calif.) containing either vehicle (9% ethanol/87% propylene glycol/4% dH2O) or 1.0 mg/mL d-aldosterone (Sigma Chemical, St. Louis, Mo.) was inserted subcutaneously at the nape of the neck. Aldosterone was administered at a dose of 0.75 µg/hour. […] Animals were sacrificed from each group (n=8-13) after 7, 14, or 30 days of treatment.
The fluorogenic 5′-nuclease assay (TaqMan PCR) using Applied Biosystems' 7700 Sequence Detection System (Applied Biosystems, Foster City, Calif.) allowed for real time detection/quantitation of a specific gene by monitoring the increase in fluorescence of a gene-specific, dye-labeled oligonucleotide probe. Probes for target and reference genes were labeled at the 5′-end with a 6-carboxyfluorescein (6FAM) reporter dye and at the 3′-end with a 6-carboxy-N,N,N′,N′-tetramethylrhodamine (TAMRA) quencher dye. When the probe was annealed to the target gene, fluorescence of 6FAM was prevented by the close proximity of TAMRA. The exonuclease activity of Taq polymerase released the dyes from the oligonucleotide probe by displacing the probe from the target sequence resulting in fluorescence excitation in direct proportion to the amount of target message present. Data analysis was performed using the Sequence Detection System software from Applied Biosystems.
Primers and probes were designed using Oligo Primer Analysis Software, Version 5.0 (National Biosciences Inc. (NBI)-Wojciech Rychlik, Cascade, Colo.). Primers were synthesized by Life Technologies (Grand Island, N.Y.) and probes were synthesized by Applied Biosystems. Primer/probe sets were designed from known sequences of rat genes to be analyzed. All target gene values were normalized to a reference gene, constitutively expressed cyclophilin. Primer/probe sets sequences can be found in Table 8
RNA was extracted from frozen (−70° C.) left ventricle (LV) tissue (approximately 10-20 mg) using 1.5 mL RNA-STAT 60 according to manufacturer's instructions (Leedo Medical Laboratories, Inc., Houston, Tex.). Briefly, tissues were homogenized using a tissue homogenizer equipped with a 5 mm probe (Ultra-Turrax T8 Homogenizer, IKA Works, Inc. Wilmington, N.C.). Following homogenization, an equal volume of molecular grade chloroform (Sigma Chemical Co., St. Louis, Mo.) was incubated with periodic mixing for 10 min at room temperature. Samples were centrifuged at 12,000 g for 10 min and RNA was precipitated from the top layer by adding an equal volume of molecular grade isopropanol (Sigma Chemical Co.) followed by an overnight incubation at −80° C. RNA was pelleted by centrifugation at 12,000 g, washed with 75% ethanol, and solubilized in nuclease-free water (Promega, Madison, Wis.).
Double-stranded cDNA was synthesized by adding 400 ng RNA (4 uL) to a final volume of 20 uL containing 15% nuclease-free water (Promega, Madison, Wis.), 1×RT Buffer (Life Technologies, Grand Island, N.Y.), 10 mM DTT (Life Technologies), 0.5 mM each of dATP, dTTP, dGTP, dCTP (PE Biosystems, Foster City, Calif.), 2.5 μM Oligo d(T)15 (Oligo Therapeutics, Inc., Wilsonville, Oreg.), 40 units RNAsin (Promega), and 200 units SuperScript II Reverse Transcriptase (Life Technologies). The reactions were performed in thin-walled reaction tubes with caps (Applied Biosystems) to ensure accurate reaction temperatures.

Setting [1] is: 7-day protocol, score 0-4, individual rats and group Mean.
[2] abbreviates: group mean, data used for Table 15 (14 days of treatment).
Where [3] appears, read: group mean, data used for Table 16 (30 days of treatment).
The mark [4] stands for this setting: individual rats, data used for Table 15 (14 days of treatment), incl. rat marked * excluded from statistics, listed as Eplerenone + aldosterone + salt.
[5] abbreviates: mean ± SEM after 7 days of treatment.
Where [6] appears, read: mean ± SEM after 14 days of treatment.
[7] abbreviates: mean ± SEM after 30 days of treatment.
Setting [8] is: individual rats, data used for Table 15 (14 days of treatment), incl. rat marked * excluded from statistics, listed as Aldosterone + salt.
The mark [9] stands for this setting: individual rats, data used for Table 16 (30 days of treatment), incl. rat marked * excluded from statistics, listed as Aldosterone + salt.

SMILES strings stand for the structures. Where “and” joins values, the source holds several entries; their conditions need not be identical. Equal entries are not always repeated. Entries after “also recorded” stand apart in the source; their conditions may differ.

With `COC(=O)[C@@H]1CC2=CC(=O)CC[C@]2(C)[C@@]23O[C@@H]2C[C@@]2(C)[C@@H](CC[C@@]24CCC(=O)O4)[C@H]13` [Eplerenone], the “Myocardial Necrosis (0-4)” value in the assay with myocardial injury (setting [1]) is 0.0; in the assay on myocardial injury (setting [2]) it was 0.5; with myocardial injury (setting [3]), 0.0; in the assay with myocardial injury (setting [4]), 1.0 (3×) and 0.0 (7×) and 2.0; with myocardial injury (individual rats, data used for Table 16 (30 days of treatment), incl. rat marked * excluded from statistics), 0.0. Moreover, in the assay on myocardial injury, the “Myocardial injury / vascular inflammatory damage (histopathology)” value was “markedly attenuated”. The entries for the “Myocardia 1 Necrosis (0-4)” value with myocardial injury (setting [5]), in the assay with myocardial injury (setting [6]) and with myocardial injury (setting [7]) were 0.0 ± 0.0, 0.5 ± 0.2 and 0.0 ± 0.0, respectively. The “Collagen-III (AU)” value is 1.09± 0.21 AU in the assay with Collagen III (setting [5]), 1.61 ± 0.26 AU in the assay with Collagen III (setting [6]) and 1.53 ± 0.23 AU in the assay with Collagen III (setting [7]). In addition, the “Collagen-III mRNA (AU)” value in the assay on Collagen III (setting [2]) is 1.61 AU; with Collagen III (setting [3]) it was 1.53 AU; in the assay on Collagen III (setting [4]) it was 0.60 AU (2×) and 1.19 AU and 1.16 AU and 1.24 AU and 1.70 AU and 1.81 AU and 1.61 AU and 2.21 AU and 1.80 AU and 3.77 AU; in the assay with Collagen III (individual rats, data used for Table 16 (30 days of treatment), incl. rat marked * excluded from statistics, listed as Eplerenone + aldosterone + salt) it was 0.95 AU and 0.72 AU and 1.37 AU and 0.89 AU and 1.26 AU and 1.87 AU and 1.66 AU and 2.89 AU and 2.16 AU and 0.73 AU.
As for `C[C@]12CCC(=O)C=C1CC[C@@H]1[C@@H]2[C@@H](O)C[C@]2(C=O)[C@@H](C(=O)CO)CC[C@@H]12` [Aldosterone], the “Myocardial Necrosis (0-4)” value with myocardial injury (setting [1]) is 0.0; with myocardial injury (setting [2]), 0.8; with myocardial injury (setting [3]), 2.0; with myocardial injury (setting [8]) it was 0.0 (7×) and 1.0 (3×) and 3.0 (3×); in the assay with myocardial injury (setting [9]) it was 1.5 and 2.5 and 3.0 (2×) and 2.0 (2×) and 0.5 and 0.3 and 3.5. The “Myocardial injury / vascular inflammatory damage (histopathology)” value in the assay on myocardial injury was “focal arterial and myocardial alterations were observed starting at 14 days; also recorded: induced vascular inflammation and cardiac tissue damage”. Moreover, the “Myocardia 1 Necrosis (0-4)” value in the assay with myocardial injury (setting [5]) is 0.0 ± 0.0; with myocardial injury (setting [6]), 0.8 ± 0.3; in the assay with myocardial injury (setting [7]), 2.0 ± 0.4. For the same compound, the “Collagen-III (AU)” value in the assay on Collagen III (setting [5]) is recorded as 1.42 ± 0.12 AU; with Collagen III (setting [6]) it was 1.08 ± 0.14 AU; with Collagen III (setting [7]), 1.39 ± 0.20 AU. Moreover, the “Collagen-III mRNA (AU)” value with Collagen III (setting [2]) is 1.08 AU; with Collagen III (setting [3]) it was 1.39 AU; in the assay with Collagen III (setting [8]) it was 0.76 AU and 1.80 AU and 0.44 AU and 1.39 AU and 1.17 AU and 1.24 AU and 1.06 AU and 1.31 AU and 0.59 AU and 1.22 AU; with Collagen III (setting [9]), 0.75 AU and 0.58 AU and 1.99 AU and 0.72 AU and 2.04 AU and 1.43 AU and 1.82 AU and 1.89 AU and 1.28 AU.
